Laboratory results reported in US20120076899A1, “SHELF STABLE MONATIN SWEETENED BEVERAGE” (Cargill, Incorporated, priority 2009, published 2012).

Test: Presence of 3-methyl indole in stored monatin samples (GC, mass spectrometry, olfactometry)
Assay type: physicochemical
Details: not detected in the initial samples (Day 0) nor in samples stored in the dark
Text: A compound described as having a musty flavor and odor during some of the organoleptic evaluations is described herein. […] The compound (3-methylindole; 3-MI; skatole) was identified using gas chromatography (GC), mass spectrometry, and olfactometry based on its retention time, mass spectra, and odor profile using the following method.
The volatile components from a sample were purged onto an absorbent and then thermally desorb them into the cold GC inlet for subsequent separation and identification by mass spectrometry. Simultaneously, the GC column effluent was split between the mass spec and olfactory port to determine the specific odor characteristics for compounds that contribute to the overall odor of the sample.
Each sample was extracted and analyzed in duplicate. […]
Each reconstructed total ion current chromatogram (RTICC) was manually reprocessed to 1) identify the compounds by using olfactory and mass spectral library matching. Compounds that were not detected by olfactory but which gave significant response were also identified, and 2) integrate the peaks to obtain areas for relative comparison to the other samples analyzed. […] Corrected areas for each compound were then converted to graphical form to more easily compare samples analyzed during the test.

detection of 3-methylindole in stored monatin samples: only found in samples exposed to light
SMILES: Cc1c[nH]c2ccccc12 [3-methylindole]
